Measured values: patent publication US6358975B1, “Method of using selective parp inhibitors to prevent or treat neurotoxicity” (Johns Hopkins University, priority 1997, dated 2002)
Read-outs that look alike come from different tables or passages of the source.

Assays:
[1] = tested on: infarct size in the heart; conditions: rabbits, cited from earlier work
[2] = tested on: NMDA toxicity in cerebral cortical cultures; test: NMDA toxicity in cortical cultures from wild-type, PARP+/− and PARP−/− mice (FIG. 2B); type: cell-based; conditions: for effect on NMDA toxicity in wild-type and PARP+/− cultures / effect on NMDA toxicity in PARP−/− cultures: 500 μM NMDA, BZD 500 μM, DPQ 10 μM; for effect on NMDA toxicity in wild-type and PARP+/− cultures: five minutes, MK801 1 μM, NArg 100 μM; for effect on NMDA toxicity in PARP−/− cultures: L-Arg 1 mM
Protocol: (§1) Mice were obtained having a targeted disruption of the PARP gene (PARP−/−), generated by the method of Wang et al., “Mice Lacking ADPRT and poly(ADP-ribosyl)ation Develop Normally But Are Susceptible to Skin Disease”, Genes Dev., 9:509-20 (1995), which is hereby incorporated by reference. The toxicity in cortical cultures elicited by a five-minute exposure to 500 μM NMDA, by 60 minutes of oxygen and glucose deprivation (OGD), and by NO-donors was evaluated, comparing cultures or cerebral cortical cells from wild-type and PARP−/− mice, as shown in FIG. 2A.
(§2) Toxicity was assayed 20-24 hours after exposure to cytotoxic conditions by microscopic examination with computer-assisted cell counting, following staining of all nuclei with 1 μg/ml Hoescht 33342 and staining of dead cell nuclei with 7 μg/ml propidium iodide. All reagents were purchased from Sigma Chemicals, St. Louis, Mo.
(§3) Both total and dead cells were counted. Glial nuclei fluoresce at a different intensity than neuronal nuclei and were gated out. The percentage of cell death was determined as the […], as compared to the percentage of cell death in control wells to account for cell death due to mechanical stimulation of the cultures. At least two separate experiments using four separate wells were performed. The results are shown in FIG. 2A, with a minimum of 15,000-20,000 neurons counted per data point, which represented the mean ± standard error of the mean (SEM)(n=8).

[3] = tested on: toxicity elicited by the NO-donor SNP in cortical cultures; test: SNP (NO-donor) toxicity in cortical cultures from wild-type, PARP+/− and PARP−/− mice; type: cell-based
Protocol: as §1, §2
as §3, with “At least two separate experiments using four separate wells were performed.” left out

[4] = tested on: OGD toxicity in cortical cultures; test: Oxygen-glucose deprivation (OGD) toxicity in cortical cultures (FIG. 2C); type: cell-based, mice; conditions: 60 minutes OGD, MK801 10 μM, NArg 100 μM, L-arginine 1 mM, benzamide 500 μM; for effect on OGD toxicity in wild-type and PARP+/− cultures: DPQ 10 μM
Protocol: See Dawson et al., “Resistance to Neurotoxicity in Cortical Cultures from Neuronal Nitric Oxide Synthase Deficient Mice”, J. Neurosci., 16:2479-87 (1996), the disclosure of which is hereby incorporated by reference. Combined OGD was performed as described in Kaku et al., “Antagonism by non-NMDA Receptors Augments the Neuroprotective Effect of NMDA Receptor Blockage in Cortical Cultures Subjected to Prolonged Deprivation of Oxygen and Glucose”, Brain Res., 554:344-47 (1991) and/or Monyer et al., “Oxygen or Glucose Deprivation-induced Neuronal Injury in Cortical Cell Cultures is Reduced by Tetanus Toxin, Neuron, 8:967-73 (1992), both of which are hereby incorporated by reference.
Specifically, the culture media was completely exchanged with deoxygenated, glucose-free Earle's balanced salt solution (EBSS) containing: 116 mM NaCl, 5.4 mM KCl, 0.8 mM MgSO4, 1 mM NaH2PO4, and 0.9 mM CaCl2, bubbled with 5% H2/85% N2/5% CO2. The cultures were kept in a 37° C., anaerobic chamber for 60 minutes containing the gas mixture 5% H2/85% N2/5% CO2. Combined oxygen-glucose deprivation was terminated by removal of the cultures from the chamber and replacement of the EBSS solution with oxygenated growth media. The cultures were returned to a humidified incubator containing 5% CO2 and atmospheric oxygen at 37° C. overnight.
as §2, §3

[5] = molecular target: poly(ADP-ribose) polymerase; conditions: read-out: IC50 for inhibiting PARP; reported by Suto et al.; cited from earlier work
[6] = tested on: NMDA- or NO-induced neurotoxicity in primary cortical cell cultures; test: Attenuation of NMDA- and NO (SNP)-induced neurotoxicity in primary cortical cell cultures (Example 1, FIG. 1); type: cell-based, mice; conditions: for EC50: Mus musculus, read-out: protection against NMDA- or NO-induced neurotoxicity, EC50 (50% of maximal protection)
Protocol: Primary cortical cell cultures were prepared from gestational, 16-day fetal mice in a procedure modified from the described in Dawson et al., “Resistance to Neurotoxicity in Cortical Cultures from Neuronal Nitric Oxide Synthase Deficient Mice”, J. Neurosci., 16:2479-87 (1996), the disclosure of which is hereby incorporated by reference. Specifically, the cortex was dissected, and the cortical cells were dissociated by a 30-minute digestion in 0.027% trypsin/saline solution (commercially available from Gibco BRL, Gaithersburg, Md.), followed by trituration in modified Eagle's medium (MEM), 20% horse serum, 25 mM glucose and 2 mM L-glutamine.
The cells were plated on 15 mm multi-well plates coated with polyornithine. Four days after plating, the cells were treated with 5-fluoro-2-deoxyuridine for three days to inhibit the proliferation of non-neuronal cells. The cells were then maintained in MEM, 10% horse serum, 25 mM glucose, and 2 mM L-glutamine in an 8% CO2, humidified 37° C. incubator. The growth medium was refreshed twice per week, and the neurons were allowed to mature for 14 days in culture before being used for experiments.
Before treatment, these critical cultures were washed with Tris buffered control salt solution (CSS) containing 120 mM NaCl, 5.4 mM KCl, 1.8 mM CaCl2, 25 mM Tris-HCl (pH 7.4) and 15 mM glucose. The washed cells were treated with NMDA or the NO-donor sodium nitroprusside (SNP) for five minutes and then washed again. The cells were then placed in growth media and returned to the incubator overnight.
Each data point represented the mean ± standard error of the mean (SEM) (n=8) of at least two separate experiments and reflected a minimum of 16,000 neurons counted.

[7] = tested on: NMDA toxicity in cerebral cortical cultures; conditions: concentration of 100 μM; Zhang et al. 1994; cited from earlier work
PARP = molecular target: T1, PARP (Mus musculus, UniProt P11103); test: PARP catalytic (self-modification) assay, mouse brain nuclear fraction; type: biochemical; conditions: benzamide treatment
T1 construct: from tissue; host or cells: mouse brain (forebrain) nuclear fraction, wild-type 129/SV
T1 sequence (P11103 whole entry): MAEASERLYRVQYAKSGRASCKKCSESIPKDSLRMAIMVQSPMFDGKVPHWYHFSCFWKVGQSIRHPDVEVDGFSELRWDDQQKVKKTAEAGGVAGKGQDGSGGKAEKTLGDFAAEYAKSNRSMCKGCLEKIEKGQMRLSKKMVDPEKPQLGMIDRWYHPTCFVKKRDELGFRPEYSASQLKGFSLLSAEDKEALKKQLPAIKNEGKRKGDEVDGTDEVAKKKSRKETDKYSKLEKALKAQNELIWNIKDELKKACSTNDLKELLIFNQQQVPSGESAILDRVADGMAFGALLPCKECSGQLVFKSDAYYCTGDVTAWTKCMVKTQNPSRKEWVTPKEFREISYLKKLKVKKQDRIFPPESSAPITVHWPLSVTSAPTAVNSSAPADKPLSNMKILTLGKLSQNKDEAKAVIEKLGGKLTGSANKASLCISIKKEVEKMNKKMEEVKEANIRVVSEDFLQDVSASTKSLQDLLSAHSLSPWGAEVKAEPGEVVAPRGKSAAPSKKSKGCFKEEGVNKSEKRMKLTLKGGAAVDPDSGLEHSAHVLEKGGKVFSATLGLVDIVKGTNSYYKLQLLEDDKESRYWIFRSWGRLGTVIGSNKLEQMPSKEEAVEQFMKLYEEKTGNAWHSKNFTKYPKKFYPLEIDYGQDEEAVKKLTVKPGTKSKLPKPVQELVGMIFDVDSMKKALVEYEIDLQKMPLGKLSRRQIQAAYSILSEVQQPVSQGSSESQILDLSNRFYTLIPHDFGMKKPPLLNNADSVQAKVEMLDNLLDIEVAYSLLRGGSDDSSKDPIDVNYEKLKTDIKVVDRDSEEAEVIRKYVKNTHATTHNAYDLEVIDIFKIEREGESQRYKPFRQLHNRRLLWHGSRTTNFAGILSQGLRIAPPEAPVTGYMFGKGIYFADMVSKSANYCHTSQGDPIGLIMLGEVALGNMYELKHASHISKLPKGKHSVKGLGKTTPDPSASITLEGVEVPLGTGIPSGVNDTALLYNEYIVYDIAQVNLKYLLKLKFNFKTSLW

SMILES	effect on NMDA toxicity in wild-type and PARP+/− cultures [2]	effect on NMDA toxicity in PARP−/− cultures [2]	effect on OGD toxicity in wild-type and PARP+/− cultures [4]	effect on OGD toxicity in PARP−/− cultures [4]	also measured
Oc1cccc2c(O)nccc12 [1,5-dihydroxyisoquinoline]	–	–	–	–	reduction in infarct size ([1]; 1 mg/kg): 38-48%
NC(=O)c1cccc(N)c1 [3-aminobenzamide]	–	–	–	–	reduction in infarct size in the heart ([1]; single injection 10 mg/kg one minute before occlusion or one minute before reperfusion): 32-42%
O=C1NCCc2c(OCCCCN3CCCCC3)cccc21 [DPQ, 3,4-dihydro-5-[4-(1-piperidinyl)-butoxy]-1(2H)-isoquinolinone]	significantly greater reduction of NMDA toxicity than benzamide	no significant effects	abolished OGD toxicity	–	effect on SNP toxicity in PARP−/− cultures [3]: no effect; effect on SNP toxicity in wild-type and PARP+/− cultures ([3]; not shown in FIG. 2): reduced the toxicity; IC50 [5]: 40 nM; potency relative to benzamide ([6]; DPQ vs benzamide): 500 times; EC50 ([6]; five-minute exposure to 500 μM NMDA or 500 μM SNP): 200 nM; effect on neurotoxicity at 10-100 μM ([6]; concentrations of 10-100 μM): virtually abolished neurotoxicity
N=C(N)NCCC[C@H](N)C(=O)O [L-arginine]	–	no significant effect	reversed the nitroarginine protection	not in PARP−/− cultures	reversal of nitroarginine neuroprotection against NMDA toxicity in wild-type cultures ([2]; L-Arg 1 mM with NArg 100 μM): reversed the neuroprotective effect of nitroarginine
C[C@]12N[C@H](Cc3ccccc31)c1ccccc12 [MK801]	abolished NMDA toxicity	–	profoundly reduced toxicity	no differential effects	–
NC(=O)c1ccccc1 [benzamide]	reduced NMDA toxicity	no significant effect	reduced OGD toxicity	no influence	protection against NMDA neurotoxicity [7]: ~50%; other ribosylated nuclear proteins (gray background) in wild-type catalytic assay (PARP): reduced; reduction of neurotoxicity at the maximally effective concentration ([6]; 500 μM NMDA or 500 μM SNP, maximally effective concentration): 65%; EC50 [6]: ~100000 nM
